In one test the test system is Staphylococcus aureus. Description: Antimicrobial activity against Staphylococcus aureus ATCC 25923 incubated overnight by two-fold serial dilution method. In kind it is functional.
Test [1] is described as follows: Cytotoxicity against human A375 cells after 48 hrs by MTT assay. As to conditions: A-375, 48 h. It counts as functional, cell-based.
Test [2] is described as follows: Cytotoxicity against human MCF7 cells after 48 hrs by MTT assay. The note with it: MCF7, 48 h. In kind it is functional, cell-based.
Test [3] can be described thus: Cytotoxicity against human A549 cells after 48 hrs by MTT assay. It counts as functional, cell-based. As to conditions: A549, 48 h.
In a further test the test system is Bacillus cereus. Description: Antimicrobial activity against Bacillus cereus ATCC 10876 incubated overnight by two-fold serial dilution method. In kind it is functional.
A short description of test [4]: Cytotoxicity against human HT-29 cells after 48 hrs by MTT assay. In kind it is functional, cell-based. As to conditions: HT-29, 48 h.
In a further test the test system is Pseudomonas aeruginosa. Description: Antimicrobial activity against Pseudomonas aeruginosa ATCC 10145 incubated overnight by two-fold serial dilution method. It counts as functional.

Structures are written as SMILES. Values after ≈ are worked out from the molar mass of the structure shown.

`C#CCn1cnc2c1c(=O)n(C)c(=O)n2C`: the values for the MIC in the test on Staphylococcus aureus, in the test with Bacillus cereus and against Pseudomonas aeruginosa were 0.0625 µg/mL (≈ 0.286 µM), 0.125 µg/mL (≈ 0.573 µM) and 0.125 µg/mL (≈ 0.573 µM), respectively. For the same compound, the IC50 in test [1] was 153 µM; in test [2], 103 µM; in test [3] it was 152 µM; in test [4] it was 158 µM.

`Cn1c(=O)c2c(ncn2CC(=O)OCCCc2cn(CC3OC(n4ccc(=O)[nH]c4=O)C4OC(C)(C)OC34)nn2)n(C)c1=O` (stereo unspecified): the values for the MIC in the test with Staphylococcus aureus, with Bacillus cereus and with Pseudomonas aeruginosa were 0.125 µg/mL (≈ 0.204 µM), 0.0312 µg/mL (≈ 0.0509 µM) and 0.0312 µg/mL (≈ 0.0509 µM), respectively. Further, the IC50 in test [1] was 8.23 µM; in test [2] it was 30.6 µM; in test [3] it was 14.3 µM; in test [4], 12.4 µM.

Take `CCn1c(=O)ccn(C2OC(Cn3cc(COC(=O)CNC(=O)Cn4cnc5c4c(=O)n(C)c(=O)n5C)nn3)C(O)C2O)c1=O` (stereo unspecified): the MIC was 0.0625 µg/mL (≈ 0.0991 µM) in the test on Staphylococcus aureus, 0.125 µg/mL (≈ 0.198 µM) in the test with Bacillus cereus and 0.0625 µg/mL (≈ 0.0991 µM) against Pseudomonas aeruginosa. For the same compound, the IC50 in test [1] was 5.81 µM; in test [2], 2.1 µM; in test [3] it was 3.57 µM; in test [4], 2.9 µM.

With `Cn1c(=O)c2c(ncn2CCCc2cn(CC3OC(n4ccc(=O)[nH]c4=O)C4OC(C)(C)OC34)nn2)n(C)c1=O` (stereo unspecified), the MIC came to 0.0625 µg/mL (≈ 0.113 µM) against Staphylococcus aureus, 0.0156 µg/mL (≈ 0.0281 µM) with Bacillus cereus and 0.0625 µg/mL (≈ 0.113 µM) in the test on Pseudomonas aeruginosa. Besides, the IC50 stood at 9.4 µM in test [1], 34.2 µM in test [2], 15.4 µM in test [3] and 7.45 µM in test [4].

As to `CCn1c(=O)ccn(C2OC(Cn3cc(COC(=O)C(C)NC(=O)C(C)n4cnc5c4c(=O)n(C)c(=O)n5C)nn3)C(O)C2O)c1=O` (stereo unspecified), the figures for the MIC in the test with Staphylococcus aureus, in the test on Bacillus cereus and in the test with Pseudomonas aeruginosa were 0.0312 µg/mL (≈ 0.0474 µM), 0.0312 µg/mL (≈ 0.0474 µM) and 0.0625 µg/mL (≈ 0.0949 µM), respectively. Also, the IC50 in test [1] amounted to 52.3 µM; in test [2], 3.8 µM; in test [3], 1.56 µM; in test [4] it was 2.71 µM.

Regarding `Cn1c(=O)c2c(ncn2CC(=O)NCc2cn(CC3OC(n4ccc(=O)[nH]c4=O)C4OC(C)(C)OC34)nn2)n(C)c1=O` (stereo unspecified), the MIC in the test on Staphylococcus aureus was determined as 0.0312 µg/mL (≈ 0.0535 µM); in the test with Bacillus cereus, 0.125 µg/mL (≈ 0.214 µM); against Pseudomonas aeruginosa, 0.125 µg/mL (≈ 0.214 µM). The IC50 in test [1] is 58.2 µM; in test [2] it was 2.14 µM; in test [3], 53.9 µM; in test [4] it was 58.2 µM.

With `Cn1c(=O)c2c(ncn2Cc2cn(CC3OC(n4ccc(=O)[nH]c4=O)C4OC(C)(C)OC34)nn2)n(C)c1=O` (stereo unspecified), the MIC with Staphylococcus aureus came out at 0.5 µg/mL (≈ 0.948 µM); against Bacillus cereus, 0.0312 µg/mL (≈ 0.0592 µM); against Pseudomonas aeruginosa it was 0.0312 µg/mL (≈ 0.0592 µM). Besides, the IC50 was 54.2 µM in test [1], 10.4 µM in test [2], 8.59 µM in test [3] and 58.2 µM in test [4].

In the case of `Cn1c(=O)c2c(ncn2CC(=O)OCc2cn(CC3OC(n4ccc(=O)[nH]c4=O)C4OC(C)(C)OC34)nn2)n(C)c1=O` (stereo unspecified), the MIC with Staphylococcus aureus was found to be 0.0312 µg/mL (≈ 0.0534 µM); against Bacillus cereus it was 0.125 µg/mL (≈ 0.213 µM); against Pseudomonas aeruginosa, 0.0625 µg/mL (≈ 0.107 µM). The IC50 in test [1] is 56.2 µM; in test [2], 23.6 µM; in test [3] it was 3.59 µM; in test [4], 6.2 µM.

For the compound `CCn1c(=O)ccn(C2OC(Cn3cc(COC(=O)C(C)n4cnc5c4c(=O)n(C)c(=O)n5C)nn3)C(O)C2O)c1=O` (stereo unspecified), the minimal inhibitory concentration (MIC) is 0.0156 µg/mL (≈ 0.0266 µM) with Staphylococcus aureus, 0.0625 µg/mL (≈ 0.106 µM) in the test on Bacillus cereus and 0.0312 µg/mL (≈ 0.0532 µM) against Pseudomonas aeruginosa. For the same compound, the IC50 in test [1] is 68.4 µM; in test [2], 2.13 µM; in test [3], 2.89 µM; in test [4], 62.8 µM.

On to `Cn1c(=O)c2c(ncn2CC(=O)NCC(=O)OCc2cn(CC3OC(n4ccc(=O)[nH]c4=O)C4OC(C)(C)OC34)nn2)n(C)c1=O` (stereo unspecified), for which the results for the MIC against Staphylococcus aureus, with Bacillus cereus and in the test with Pseudomonas aeruginosa were 0.0312 µg/mL (≈ 0.0486 µM), 0.0156 µg/mL (≈ 0.0243 µM) and 0.125 µg/mL (≈ 0.195 µM), respectively. The IC50 amounted to 59.8 µM in test [1], 12.6 µM in test [2], 5.67 µM in test [3] and 59.3 µM in test [4].

`C#CCCCn1cnc2c1c(=O)n(C)c(=O)n2C`: the MIC with Staphylococcus aureus worked out at 0.0312 µg/mL (≈ 0.127 µM); in the test with Bacillus cereus, 0.125 µg/mL (≈ 0.508 µM); in the test with Pseudomonas aeruginosa it was 0.125 µg/mL (≈ 0.508 µM). For the same compound, the IC50 stood at 156 µM in test [1], 34.2 µM in test [2], 55.4 µM in test [3] and 160 µM in test [4].

`Cn1c(=O)c2c(ncn2CC(=O)OCCc2cn(CC3OC(n4ccc(=O)[nH]c4=O)C4OC(C)(C)OC34)nn2)n(C)c1=O` (stereo unspecified): the IC50 was 54.2 µM in test [1], 2.4 µM in test [2], 7.39 µM in test [3] and 100 µM in test [4].

With `CCn1c(=O)ccn(C2OC(Cn3cc(COC(=O)Cn4cnc5c4c(=O)n(C)c(=O)n5C)nn3)C(OC)C2OC)c1=O` (stereo unspecified), the IC50 in test [1] was 62.8 µM; in test [2] it was 2.67 µM; in test [3] it was 56.8 µM; in test [4], 58.8 µM.

`CCn1c(=O)ccn(C2OC(Cn3cc(COC(=O)Cn4cnc5c4c(=O)n(C)c(=O)n5C)nn3)C(O)C2O)c1=O` (stereo unspecified): the MIC in the test with Staphylococcus aureus, against Bacillus cereus and in the test on Pseudomonas aeruginosa was 0.0625 µg/mL (≈ 0.109 µM) throughout. In addition, the IC50 was 4.89 µM in test [1], 1.89 µM in test [2], 2.56 µM in test [3] and 2.19 µM in test [4].

For the compound `C#CCCCOC(=O)Cn1cnc2c1c(=O)n(C)c(=O)n2C`, the MIC stood at 0.5 µg/mL (≈ 1.64 µM) against Staphylococcus aureus, 0.0625 µg/mL (≈ 0.205 µM) against Bacillus cereus and 0.0625 µg/mL (≈ 0.205 µM) against Pseudomonas aeruginosa. In addition, the half-inhibitory concentration (IC50) in test [1] was 158 µM; in test [2] it was 162 µM; in test [3] it was 56.8 µM; in test [4], 36.6 µM.

Take `C#CCCOC(=O)Cn1cnc2c1c(=O)n(C)c(=O)n2C`: the MIC with Staphylococcus aureus is 0.0625 µg/mL (≈ 0.215 µM); against Bacillus cereus it was 0.125 µg/mL (≈ 0.431 µM); in the test with Pseudomonas aeruginosa it was 0.0625 µg/mL (≈ 0.215 µM). Also, the IC50 stood at 159 µM in test [1], 56.3 µM in test [2], 104 µM in test [3] and 152 µM in test [4].

Regarding `C#CCNC(=O)Cn1cnc2c1c(=O)n(C)c(=O)n2C`, the MIC in the test on Staphylococcus aureus was determined as 0.0156 µg/mL (≈ 0.0567 µM); against Bacillus cereus, 0.0625 µg/mL (≈ 0.227 µM); in the test with Pseudomonas aeruginosa, 0.0625 µg/mL (≈ 0.227 µM). Besides, the IC50 in test [1] is 28.2 µM; in test [2] it was 157 µM; in test [3], 114 µM; in test [4] it was 19.4 µM.

For `C#CCOC(=O)Cn1cnc2c1c(=O)n(C)c(=O)n2C`, the results for the MIC against Staphylococcus aureus, against Bacillus cereus and in the test with Pseudomonas aeruginosa were 0.0312 µg/mL (≈ 0.113 µM), 0.125 µg/mL (≈ 0.452 µM) and 0.125 µg/mL (≈ 0.452 µM), respectively. The IC50 in test [1] amounted to 33.6 µM; in test [2], 33.9 µM; in test [3] it was 156 µM; in test [4] it was 68.3 µM.

Consider `CCn1c(=O)ccn(C2OC(Cn3cc(COC(=O)CNC(=O)Cn4cnc5c4c(=O)n(C)c(=O)n5C)nn3)C(OC)C2OC)c1=O` (stereo unspecified), for which the IC50 in test [1] worked out at 77.4 µM; in test [2], 59.8 µM; in test [3], 52 µM; in test [4] it was 74.3 µM.

Turning to `O=C(O)c1cn(C2CC2)c2cc(N3CCNCC3)c(F)cc2c1=O` [CIPROFLOXACIN], the minimal inhibitory concentration (MIC) in the test with Staphylococcus aureus is 0.0312 µg/mL (≈ 0.0943 µM); against Bacillus cereus it was 0.0156 µg/mL (≈ 0.0471 µM); in the test with Pseudomonas aeruginosa, 0.0625 µg/mL (≈ 0.189 µM).

For the compound `COc1ccc(/C=C\c2cc(OC)c(OC)c(OC)c2)cc1O` [COMBRETASTATIN A4], the IC50 in test [1] stood at 0.21 µM; in test [2] it was 0.18 µM; in test [3], 0.11 µM; in test [4] it was 0.93 µM.
